Assay results from ChEMBL document CHEMBL4229568, “Discovery of natural flavonoids as activators of Nrf2-mediated defense system: Structure-activity relationship and inhibition of intracellular oxidative insults” (Bioorg Med Chem, 2018).
Activity calls are given as the source filed them. The rule behind the calls is not given here.

What was measured:
BEAS-2B [1] = assay: Cytotoxicity against human BEAS2B cells assessed as decrease in cell viability at 6.25 after 24 hrs by MTT assay; format: cell-based
[2] = biological target: T1, Nuclear factor erythroid 2-related factor 2 (Homo sapiens) (UniProt Q16236); assay: Activation of Nrf2 in human BEAS2B cells assessed as upregulation of Nrf2 protein expression at 6.25 uM pretreated for 1 hr followed by co-treatment with MEK1/2 inhibitor PD98059 for 18 hrs by immunoblot analysis; format: cell-based
T1 sequence (whole entry): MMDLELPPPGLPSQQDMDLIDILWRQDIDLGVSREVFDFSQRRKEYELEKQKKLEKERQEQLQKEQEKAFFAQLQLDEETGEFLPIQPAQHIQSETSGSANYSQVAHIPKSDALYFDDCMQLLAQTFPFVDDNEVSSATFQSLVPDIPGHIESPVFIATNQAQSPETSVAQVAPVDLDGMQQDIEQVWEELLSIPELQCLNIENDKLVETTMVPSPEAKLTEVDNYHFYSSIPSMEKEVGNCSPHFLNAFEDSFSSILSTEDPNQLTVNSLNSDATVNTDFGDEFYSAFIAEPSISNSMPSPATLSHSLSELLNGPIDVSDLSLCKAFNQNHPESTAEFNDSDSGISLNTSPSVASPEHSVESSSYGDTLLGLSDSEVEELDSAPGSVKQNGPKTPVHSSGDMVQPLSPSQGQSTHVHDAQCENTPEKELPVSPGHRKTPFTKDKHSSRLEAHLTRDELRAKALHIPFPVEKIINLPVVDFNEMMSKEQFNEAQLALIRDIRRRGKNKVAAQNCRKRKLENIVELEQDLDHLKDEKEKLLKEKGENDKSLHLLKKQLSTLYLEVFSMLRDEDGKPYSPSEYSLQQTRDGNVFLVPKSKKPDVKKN

[3] = biological target: T1, Nuclear factor erythroid 2-related factor 2 (Homo sapiens); assay: Activation of Nrf2 in human BEAS2B cells assessed as upregulation of NQO1 protein expression at 0.31 to 20 uM after 18 hrs by immunoblot analysis; format: cell-based
BEAS-2B [4] = assay: Cytotoxicity against human BEAS2B cells assessed as decrease in cell viability up to 25 uM after 48 hrs by MTT assay; format: cell-based
BEAS-2B [5] = assay: Cytoprotective activity in human BEAS2B cells assessed as decrease in As(+3)-induced cell apoptosis at 6.25 uM preincubated for 8 hrs followed by As(+3) challenge and measured after 24 hrs by annexin V-FITC/propidium iodide staining-based flow cytometric method; format: functional
BEAS-2B [6] = assay: Effect on Keap1 protein levels in human BEAS2B cells at 6.25 uM after 4 to 48 hrs by immunoblot analysis; format: functional, cell-based
[7] = biological target: T1, Nuclear factor erythroid 2-related factor 2 (Homo sapiens); assay: Activation of Nrf2 in human BEAS2B cells assessed as suppression of As(+3)-induced overproduction of reactive oxygen species at 6.25 uM pretreated for 8 hrs followed by As(+3) challenge and measured after 10 hrs; format: cell-based
[8] = biological target: T1, Nuclear factor erythroid 2-related factor 2 (Homo sapiens); assay: Activation of Nrf2 in human BEAS2B cells assessed as upregulation of NQO1 protein expression at 6.25 uM after 48 hrs by immunoblot analysis; format: cell-based
[9] = biological target: T1, Nuclear factor erythroid 2-related factor 2 (Homo sapiens); assay: Activation of Nrf2 in human BEAS2B cells assessed as upregulation of gamma-GCS protein expression at 50 to 100 uM after 18 hrs by immunoblot analysis; format: cell-based
[10] = biological target: T1, Nuclear factor erythroid 2-related factor 2 (Homo sapiens); assay: Activation of Nrf2 in human BEAS2B cells assessed as upregulation of NQO1 protein expression at 6.25 uM after 8 to 24 hrs by immunoblot analysis; format: cell-based
[11] = biological target: T2, Nuclear factor erythroid 2-related factor 2 (Mus musculus) (UniProt Q60795); assay: Activation of Nrf2 in mouse Heap1c1c7 cells assessed as induction of NAD(P)H:quinone reductase activity at 6.25 uM pretreated for 1 hr followed by co-treatment with PI3K inhibitor LY294002 for 24 hrs; format: cell-based
T2 sequence (whole entry): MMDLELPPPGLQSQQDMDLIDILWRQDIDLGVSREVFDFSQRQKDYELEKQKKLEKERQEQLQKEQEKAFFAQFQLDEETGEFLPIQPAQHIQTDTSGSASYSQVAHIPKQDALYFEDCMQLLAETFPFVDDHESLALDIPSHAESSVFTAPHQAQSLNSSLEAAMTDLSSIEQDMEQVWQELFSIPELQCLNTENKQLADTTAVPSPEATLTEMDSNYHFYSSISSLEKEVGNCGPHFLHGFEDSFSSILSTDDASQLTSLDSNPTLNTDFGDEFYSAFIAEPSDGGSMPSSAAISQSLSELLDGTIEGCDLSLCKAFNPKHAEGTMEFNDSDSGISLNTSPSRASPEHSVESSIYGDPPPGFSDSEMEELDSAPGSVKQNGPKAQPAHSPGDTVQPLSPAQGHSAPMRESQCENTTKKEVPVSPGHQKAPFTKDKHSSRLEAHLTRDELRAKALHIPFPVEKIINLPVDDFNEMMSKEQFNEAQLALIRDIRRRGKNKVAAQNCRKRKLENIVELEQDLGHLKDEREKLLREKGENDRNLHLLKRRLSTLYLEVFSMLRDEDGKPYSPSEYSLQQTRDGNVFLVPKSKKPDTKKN

[12] = biological target: T1, Nuclear factor erythroid 2-related factor 2 (Homo sapiens); assay: Stabilization of Nrf2 in human BEAS2B cells assessed as protein half life at 6.25 uM preincubated for 8 hrs followed by CHX addition and measured over 10 to 40 mins by immunoblot analysis (reference value: 14.7 min); format: cell-based
[13] = biological target: T1, Nuclear factor erythroid 2-related factor 2 (Homo sapiens); assay: Activation of Nrf2 in human BEAS2B cells assessed as upregulation of Nrf2 protein expression at 6.25 uM pretreated for 1 hr followed by co-treatment with p38 MAPK inhibitor SB203580 for 18 hrs by immunoblot analysis; format: cell-based
BEAS-2B [14] = assay: Cytoprotective activity in human BEAS2B cells assessed as decrease in 5 to 20 uM As(+3)-induced cell death at 6.25 uM preincubated for 8 hrs followed by As(+3) challenge and measured after 24 hrs by MTT assay; format: functional, cell-based
BEAS-2B [15] = assay: Cytoprotective activity in human BEAS2B cells transfected with Nrf2-SiRNA assessed as decrease in As(+3)-induced cell death at 6.25 uM preincubated for 8 hrs followed by As(+3) challenge and measured after 24 hrs by MTT assay; format: functional, cell-based
[16] = biological target: T1, Nuclear factor erythroid 2-related factor 2 (Homo sapiens); assay: Activation of Nrf2 in human MDA-MB-231 cells assessed as upregulation of Nrf2 protein expression after 16 hrs by immunoblot analysis; format: cell-based
[17] = biological target: T1, Nuclear factor erythroid 2-related factor 2 (Homo sapiens); assay: Activation of Nrf2 in human BEAS2B cells assessed as upregulation of Nrf2 protein expression at 6.25 uM after 48 hrs by immunoblot analysis; format: cell-based

In the case of `COc1ccc(-c2coc3cc(OC)cc(O)c3c2=O)cc1` [4',7-DIMETHOXY-5-HYDROXYGENISTEIN], the Activity (BEAS-2B [1]) is reported as “Non-Toxic”, the Activity [2] is reported as “inactive” and the Activity [3] is reported as “Dose-dependent effect”. The Activity (BEAS-2B [4]) was “Non-Toxic”, the Activity (BEAS-2B [5]) was “Active” and the Activity (BEAS-2B [6]) was “inactive”. For the same compound, the Activity [7] was “Active”, the Activity [8] was “inactive” and the Activity [9] was “inactive”. The Activity [10] was “Active”, the Activity [11] was “inactive” and the T1/2 [12] was 27.6 min. The Activity [13] was “inactive”, the Activity (BEAS-2B [14]) was “Active” and the Activity (BEAS-2B [15]) was “inactive”. For the same compound, the Activity [16] was “Dose-dependent effect” and the Activity [17] was “inactive”.
